Experimental data from patent US12448369B2 (Edgewise Therapeutics, Inc., priority 2023, dated 2025).
Marks after values point to notes of the source that are not given here.

Legend:
[1] = tested on: Porcine atria myofibrils (atrial myosin ATPase); assay: Myofibril ATPase assay, porcine atria myofibrils; type: biochemical
Procedure, shortened: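 Porcine atrial myofibrils were tested in a PK/LDH-coupled system where ADP from myosin ATPase drives NADH oxidation. Absorbance at 340 nm was read every 1.5-2 min for 75 min and slopes were normalized to vehicle wells. A 4-parameter logistic fit gave Y75 (25% inhibition) or Y125 (activation) concentrations.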

[2] = molecular target: T1, Porcine ventricle myofibrils (ventricular myosin ATPase) (Sus scrofa, UniProt P79293); assay: Myofibril ATPase assay, porcine ventricle myofibrils; type: biochemical, porcine (Yucatan minipigs)
T1 construct: Myofibrils from porcine cardiac muscle was isolated from the left ventricle of Yucatan minipigs; tissue Exemplar Genetics; host or cells: left ventricle of Yucatan minipigs, myofibrils prepared in house
Procedure, shortened: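 ATPase activity of porcine left-ventricle myofibrils (Yucatan minipig) was followed through PK-LDH coupling as NADH loss at 340 nm, read every 1.5-2 min for 75 min. Slopes were normalised to vehicle wells and fitted to a 4-parameter logistic model. Values are Y75, the concentration giving a 25% drop in activity, or Y125 for activators.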

[3] = tested on: Rabbit Psoas myofibrils (skeletal myosin ATPase); assay: Myofibril ATPase assay, rabbit psoas (skeletal) myofibrils; type: biochemical
Procedure, shortened: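 ATPase activity of Triton-washed myofibrils was measured by PK/LDH coupling, following NADH loss at 340 nm every 1.5–2 min for 75 min in PIPES/Ca/EGTA buffer at pH 7.0. Slopes, normalized to vehicle (100%), were fitted to a 4-parameter logistic model. Values are Y75 (25% inhibition) or Y125 (activators).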

[4] = porcine atria myofibrils, Y75 value (75% activity relative to no compound)
[5] = porcine ventricle myofibrils, Y75 value
[6] = rabbit psoas myofibrils, Y75 value
[7] = Y75 value: concentration required to reduce myosin ATP-ase activity by 25%, Porcine Atria Prep pCa 25 GEOM_MEAN
[8] = Y75 value: concentration required to reduce myosin ATP-ase activity by 25%, Porcine Ventricle Prep pCa 25 GEOM_MEAN
[9] = Y75 value: concentration required to reduce myosin ATP-ase activity by 25%, Rabbit Psoas Prep pCa 25 GEOM_MEAN
[10] = Y75 value (no ‡ mark), porcine atria myofibrils
[11] = Y75 value (no ‡ mark), porcine ventricle myofibrils
[12] = Y75 value (no ‡ mark), rabbit psoas myofibrils

T1 sequence (P79293 whole entry): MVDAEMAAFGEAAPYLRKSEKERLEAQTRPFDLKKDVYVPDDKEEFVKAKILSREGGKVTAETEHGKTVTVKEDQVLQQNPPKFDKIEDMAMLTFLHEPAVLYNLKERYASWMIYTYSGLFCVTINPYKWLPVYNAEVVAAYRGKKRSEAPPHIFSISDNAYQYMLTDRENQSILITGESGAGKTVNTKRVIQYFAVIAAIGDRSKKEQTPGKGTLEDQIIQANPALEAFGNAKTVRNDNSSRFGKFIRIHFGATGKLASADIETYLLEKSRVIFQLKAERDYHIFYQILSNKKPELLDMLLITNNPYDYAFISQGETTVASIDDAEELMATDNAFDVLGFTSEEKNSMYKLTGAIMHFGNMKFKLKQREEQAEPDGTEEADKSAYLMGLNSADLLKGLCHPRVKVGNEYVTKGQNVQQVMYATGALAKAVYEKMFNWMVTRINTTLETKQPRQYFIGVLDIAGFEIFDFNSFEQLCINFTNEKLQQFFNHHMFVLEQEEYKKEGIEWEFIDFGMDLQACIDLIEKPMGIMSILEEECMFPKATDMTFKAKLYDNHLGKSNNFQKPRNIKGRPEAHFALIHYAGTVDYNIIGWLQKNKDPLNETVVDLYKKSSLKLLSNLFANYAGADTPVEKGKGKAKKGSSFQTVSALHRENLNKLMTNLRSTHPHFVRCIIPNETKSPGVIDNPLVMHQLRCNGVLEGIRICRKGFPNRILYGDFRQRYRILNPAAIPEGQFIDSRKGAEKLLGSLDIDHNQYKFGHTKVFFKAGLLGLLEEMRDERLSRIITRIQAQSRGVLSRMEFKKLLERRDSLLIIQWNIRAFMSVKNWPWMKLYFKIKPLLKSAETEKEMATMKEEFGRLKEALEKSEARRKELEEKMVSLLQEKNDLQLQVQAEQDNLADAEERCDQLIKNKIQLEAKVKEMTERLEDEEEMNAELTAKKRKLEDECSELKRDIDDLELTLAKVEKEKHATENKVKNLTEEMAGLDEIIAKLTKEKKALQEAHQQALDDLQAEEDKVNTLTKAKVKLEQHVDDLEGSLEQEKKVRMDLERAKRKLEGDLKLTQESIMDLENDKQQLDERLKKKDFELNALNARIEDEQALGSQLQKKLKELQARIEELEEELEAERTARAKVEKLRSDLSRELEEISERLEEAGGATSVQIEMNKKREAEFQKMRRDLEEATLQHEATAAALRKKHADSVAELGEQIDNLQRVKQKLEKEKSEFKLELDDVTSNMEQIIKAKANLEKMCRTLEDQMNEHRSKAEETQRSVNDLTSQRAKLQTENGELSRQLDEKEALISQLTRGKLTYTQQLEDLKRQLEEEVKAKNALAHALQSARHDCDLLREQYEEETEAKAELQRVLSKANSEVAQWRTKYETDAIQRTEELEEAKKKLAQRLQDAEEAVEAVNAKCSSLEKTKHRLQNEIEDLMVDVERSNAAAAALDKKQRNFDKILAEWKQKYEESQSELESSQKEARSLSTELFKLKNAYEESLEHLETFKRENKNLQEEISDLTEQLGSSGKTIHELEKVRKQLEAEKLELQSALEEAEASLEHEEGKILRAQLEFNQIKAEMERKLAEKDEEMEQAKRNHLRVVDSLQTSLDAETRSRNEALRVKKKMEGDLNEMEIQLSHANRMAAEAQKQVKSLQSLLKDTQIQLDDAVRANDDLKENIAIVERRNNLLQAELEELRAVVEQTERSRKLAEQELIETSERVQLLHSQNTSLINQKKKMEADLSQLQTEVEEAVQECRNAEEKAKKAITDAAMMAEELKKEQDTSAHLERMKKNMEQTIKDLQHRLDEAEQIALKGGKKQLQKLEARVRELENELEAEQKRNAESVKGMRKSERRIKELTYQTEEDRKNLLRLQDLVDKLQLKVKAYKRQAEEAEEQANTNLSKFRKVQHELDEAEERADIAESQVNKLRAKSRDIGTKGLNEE

Compound	Atrial EC25 [1, 10] [µM]	Ventricular EC25 [2, 11] [µM]	Skeletal EC25 [3, 12] [µM]	further results
Cc1nccc2[nH]c(=O)c(C(F)(F)C(=O)N[C@H](C)c3cnc(C#N)cn3)c(C)c12 (single isomer, unassigned) [compound 3520]				Atrial EC25 [1, 4]: 2.38 µM; Ventricular EC25 [2, 5]: 4.50 µM; Skeletal EC25 [3, 6]: 0.25 µM
Cc1nccc2[nH]c(=O)c(C(F)(F)C(=O)N[C@@H](C)c3cnc(C#N)cn3)c(C)c12 (single isomer, unassigned) [compound 3521]				Atrial EC25 [1, 4]: 14.61 µM; Ventricular EC25 [2, 5]: 34.58 µM; Skeletal EC25 [3, 6]: 2.68 µM
Cc1nccc2[nH]c(=O)c(C(F)(F)C(=O)N[C@H](CO)c3ncc(C#N)cc3F)c(C)c12 (single isomer, unassigned) [compound 3522]				Atrial EC25 [1, 4]: 1.10 µM; Ventricular EC25 [2, 5]: 2.90 µM; Skeletal EC25 [3, 6]: 0.28 µM
Cc1nccc2[nH]c(=O)c(C(F)(F)C(=O)N[C@@H](CO)c3ncc(C#N)cc3F)c(C)c12 (single isomer, unassigned) [compound 3523]				Atrial EC25 [1, 4]: 9.76 µM; Ventricular EC25 [2, 5]: 21.66 µM; Skeletal EC25 [3, 6]: 8.73 µM
C[C@H](NC(=O)Cc1cc2c(F)c(F)ccc2[nH]c1=O)c1cc(C#N)c(F)s1 (single isomer, unassigned) [compound 4003]				Atrial EC25 [1, 7]: 100.00 µM; Ventricular EC25 [2, 8]: 100.00 µM; Skeletal EC25 [3, 9]: 1.06 µM
C[C@@H](NC(=O)Cc1cc2c(F)c(F)ccc2[nH]c1=O)c1nc(C#N)co1 (single isomer, unassigned) [compound 4006]				Atrial EC25 [1, 7]: 0.74 µM; Ventricular EC25 [2, 8]: 6.66 µM; Skeletal EC25 [3, 9]: 1.11 µM
C[C@H](NC(=O)Cc1cc2c(F)c(F)ccc2[nH]c1=O)c1nc(C#N)co1 (single isomer, unassigned) [compound 4007]				Atrial EC25 [1, 7]: 100.00 µM; Ventricular EC25 [2, 8]: 100.00 µM; Skeletal EC25 (μM), Y125 value (‡) ([3]; Y125 value: concentration required to increase myosin ATP-ase activity by 25%, Rabbit Psoas Prep pCa 25 GEOM_MEAN): 100.00‡ μM
C[C@H](NC(=O)Cc1cc2c(F)c(F)ccc2[nH]c1=O)c1nc(C#N)cs1 (single isomer, unassigned) [compound 4008]				Atrial EC25 [1, 7]: 2.24 µM; Ventricular EC25 [2, 8]: 2.08 µM; Skeletal EC25 [3, 9]: 4.42 µM
CC(NC(=O)Cc1cc2c(F)c(F)ccc2[nH]c1=O)c1nc(C#N)cs1 (single isomer, unassigned) [compound 4009, N-(1-(4-cyanothiazol-2-yl)ethyl)-2-(5,6-difluoro-2-oxo-1,2-dihydroquinolin-3-yl)acetamide]				Atrial EC25 [1, 7]: 2.28 µM; Ventricular EC25 [2, 8]: 0.91 µM; Skeletal EC25 [3, 9]: 1.49 µM
O=C(Cc1cc2cc(F)ccc2[nH]c1=O)N1CC[C@H]2C[C@@H]1c1ccccc12 (single isomer, unassigned) [compound 4502]	1.28	0.63	0.50	
O=C(Cc1cc2cc(F)ccc2[nH]c1=O)N1CC[C@@H]2C[C@H]1c1ccccc12 (single isomer, unassigned) [compound 4503]	11.52	2.98	1.29	
Cc1c(C2(C(=O)N[C@@H]3CCc4cc(C#N)cnc43)CC2)c(=O)[nH]c2ccc(F)c(F)c12 (single isomer, unassigned) [compound 4803]	100.00	100.00	0.27	
Cc1c(C2(C(=O)N[C@H]3CCc4cc(C#N)cnc43)CC2)c(=O)[nH]c2ccc(F)c(F)c12 (single isomer, unassigned) [compound 4804]	4.71	100.00	100.00	
Cc1cc(F)cnc1[C@@H](C)NC(=O)C1(c2cc3c(F)c(F)ccc3[nH]c2=O)CC1 (single isomer, unassigned) [compound 4805]	1.66	100.00	1.91	
Cc1cc(F)cnc1[C@H](C)NC(=O)C1(c2cc3c(F)c(F)ccc3[nH]c2=O)CC1 (single isomer, unassigned) [compound 4806]	0.71	33.85	2.39	
C[C@@H](NC(=O)C1(c2cc3c(F)c(F)ccc3[nH]c2=O)CC1)c1ccc(C#N)cn1 (single isomer, unassigned) [compound 4809]	3.07	31.20	1.34	
C[C@H](NC(=O)C1(c2cc3c(F)c(F)ccc3[nH]c2=O)CC1)c1ccc(C#N)cn1 (single isomer, unassigned) [compound 4810]	1.90	100.00	100.00	
N#Cc1cc(F)c2c(c1)OC[C@H]2NC(=O)C1(c2cc3c(F)c(F)ccc3[nH]c2=O)CC1 (single isomer, unassigned) [compound 4821]	0.44	100.00	20.88	
N#Cc1cc(F)c2c(c1)OC[C@@H]2NC(=O)C1(c2cc3c(F)c(F)ccc3[nH]c2=O)CC1 (single isomer, unassigned) [compound 4822]	0.16	0.48	0.08	
N#Cc1cnc2c(c1)CC[C@H]2NC(=O)C1(c2cc3c(F)c(F)ccc3[nH]c2=O)CC1 (single isomer, unassigned) [compound 4823]	8.47	100.00	42.66	
N#Cc1cnc2c(c1)CC[C@@H]2NC(=O)C1(c2cc3c(F)c(F)ccc3[nH]c2=O)CC1 (single isomer, unassigned) [compound 4824]	100.00	100.00	8.80	
C[C@@H](NC(=O)C1(c2cc3c(F)c(F)ccc3[nH]c2=O)CC1)c1cnc(C#N)cn1 (single isomer, unassigned) [compound 4829]	0.45	6.13	1.15	
C[C@H](NC(=O)C1(c2cc3c(F)c(F)ccc3[nH]c2=O)CC1)c1cnc(C#N)cn1 (single isomer, unassigned) [compound 4830]	0.46	100.00	1.34	

Further lines, with some results ahead:

Atrial EC25 [1, 10] [µM]	Ventricular EC25 [2, 11] [µM]	Skeletal EC25 [3, 12] [µM]	Compound	further results
0.28	100.00	0.28	Cc1c(C2(C(=O)N[C@H](C)c3ncc(C#N)cc3F)CC2)c(=O)[nH]c2ccc(F)c(C(F)(F)F)c12 (single isomer, unassigned) [compound 4801]	
0.20	1.00	0.14	Cc1c(C2(C(=O)N[C@@H](C)c3ncc(C#N)cc3F)CC2)c(=O)[nH]c2ccc(F)c(C(F)(F)F)c12 (single isomer, unassigned) [compound 4802]	
0.73	0.46	0.59	Cc1c(F)ccc2[nH]c(=O)c(C(F)(F)C(=O)N[C@H](C)c3ncc(C#N)cc3F)c(C)c12 (single isomer, unassigned) [compound 4811]	
0.19	0.18	0.05	Cc1c(F)ccc2[nH]c(=O)c(C(F)(F)C(=O)N[C@@H](C)c3ncc(C#N)cc3F)c(C)c12 (single isomer, unassigned) [compound 4812]	
0.28	2.65	1.02	Cc1c(C(F)(F)C(=O)N[C@H](C)c2ncc(F)cc2F)c(=O)[nH]c2ccc(F)cc12 (single isomer, unassigned) [compound 4819]	
0.12	0.61	0.11	Cc1c(C(F)(F)C(=O)N[C@@H](C)c2ncc(F)cc2F)c(=O)[nH]c2ccc(F)cc12 (single isomer, unassigned) [compound 4820]	
0.43	100.00	100.00	Cc1nc(C#N)cnc1[C@@H](C)NC(=O)C1(c2cc3c(F)c(F)ccc3[nH]c2=O)CC1 (single isomer, unassigned) [compound 4825]	
0.67	10.09	1.00	Cc1nc(C#N)cnc1[C@H](C)NC(=O)C1(c2cc3c(F)c(F)ccc3[nH]c2=O)CC1 (single isomer, unassigned) [compound 4826]	
0.23	0.71	0.08	Cc1c(C(F)(F)C(=O)N[C@H](C)c2cnc(C#N)cn2)c(=O)[nH]c2ccc(F)cc12 (single isomer, unassigned) [compound 4827]	
0.30	1.13	0.24	Cc1c(C(F)(F)C(=O)N[C@@H](C)c2cnc(C#N)cn2)c(=O)[nH]c2ccc(F)cc12 (single isomer, unassigned) [compound 4828]	
